Test results taken from US12048678B2, “Compounds for treating myelin related disorders” (Case Western Reserve University, priority 2018, dated 2024).

Legend:
Assay type in all cases: cell-based
[1] = target: T1, estrogen receptor (T47D cells) (Homo sapiens, UniProt P03372); assay: Estrogen-dependent cell proliferation assay; conditions: Compound 1 at 1 μM, TASIN-1 100 nM
T1 construct: estrogen dependent growth of T47D cells; endogenous in cells; host or cells: T47D
T1 sequence (P03372 1-595): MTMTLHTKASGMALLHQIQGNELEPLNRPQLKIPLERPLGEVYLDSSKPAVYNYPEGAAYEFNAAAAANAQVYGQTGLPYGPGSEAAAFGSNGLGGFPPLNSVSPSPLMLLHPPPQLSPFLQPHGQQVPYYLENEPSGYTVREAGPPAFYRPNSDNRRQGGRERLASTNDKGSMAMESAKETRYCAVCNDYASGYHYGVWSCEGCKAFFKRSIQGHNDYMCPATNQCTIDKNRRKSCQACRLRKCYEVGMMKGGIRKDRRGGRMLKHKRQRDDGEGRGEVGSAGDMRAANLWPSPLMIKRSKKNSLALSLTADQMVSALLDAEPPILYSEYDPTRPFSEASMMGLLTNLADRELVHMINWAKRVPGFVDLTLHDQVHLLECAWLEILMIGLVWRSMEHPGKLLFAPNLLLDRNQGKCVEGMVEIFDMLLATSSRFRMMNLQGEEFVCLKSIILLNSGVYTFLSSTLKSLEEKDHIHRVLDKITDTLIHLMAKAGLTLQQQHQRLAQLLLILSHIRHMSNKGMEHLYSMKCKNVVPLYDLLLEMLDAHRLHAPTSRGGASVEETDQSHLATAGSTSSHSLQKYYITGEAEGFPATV
Procedure: Estrogen-dependent cell proliferation was measured as previously described with minor modifications. After growth in estrogen-free media (Phenol red-free RPMI supplemented with 10% charcoal stripped fetal bovine serum) for 5 days, cells were seeded at 2,500 cells/well into 96 well plates. The following day 3× drug containing media was added to triplicate wells and cells were allowed to grow for an additional 5 days at 37° C. in standard a 5% CO2 humidified incubator. Total DNA per well was measured using an adaptation of the method of Labarca and Paigen. At this time media was removed, cells were washed one time with 0.25×PBS and 100 μl of distilled water was added. […] After incubation at room temperature for 2 hours, plates were read in a SpectraMax i3 fluorescent plate reader (Molecular Devices, Sunnyvale, CA) with excitation at 360 nm and emission at 460 nm. All values were converted to microgram DNA per well using a standard curve derived from purified salmon testes DNA.

kappa opioid receptor = kappa opioid receptor (Homo sapiens, UniProt P41145); assay: k-Opioid receptor agonism assay (Tango  U2OS cells); conditions: Compound 1 at 1 μM, TASIN-1 100 nM, U50488 2 μM
M1 muscarinic receptor = target: T2, M1 muscarinic receptor (Homo sapiens, UniProt P11229); assay: Muscarinic receptor antagonism assay (GeneBLAzer M1-NFAT-bla CHO-K1 cells); conditions: Compound 1 at 1 μM, TASIN-1 100 nM; concentration maximally effective for oligodendrocyte formation
T2 sequence (P11229 1-460): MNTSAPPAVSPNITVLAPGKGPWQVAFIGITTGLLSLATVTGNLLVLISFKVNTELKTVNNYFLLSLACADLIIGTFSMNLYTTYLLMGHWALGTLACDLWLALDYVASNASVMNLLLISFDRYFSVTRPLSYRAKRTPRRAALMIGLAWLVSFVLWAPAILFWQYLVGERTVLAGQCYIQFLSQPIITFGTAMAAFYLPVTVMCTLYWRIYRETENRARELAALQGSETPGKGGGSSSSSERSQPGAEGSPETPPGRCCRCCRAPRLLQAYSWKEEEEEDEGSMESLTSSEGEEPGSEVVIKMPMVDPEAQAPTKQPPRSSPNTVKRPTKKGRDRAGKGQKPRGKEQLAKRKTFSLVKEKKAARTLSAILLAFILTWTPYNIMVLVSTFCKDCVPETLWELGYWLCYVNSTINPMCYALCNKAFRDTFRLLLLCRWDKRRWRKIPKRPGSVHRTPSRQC
Procedure: GeneBLAzer M1-NFAT-bla CHO-K1 cells (or M3- or M5-NFAT-bla CHO-K1 cells)(ThermoFisher) were thawed into Assay Media (DMEM, 10% dialyzed FBS, 25 mM HEPES pH 7.3, 0.1 mM NEAA). 10,000 cells/well were added to a 384-well TC treated assay plate and incubated 16-24 h at 37° C. 4 μl of a 10× stock of antimuscarinic molecules was added to the plate and incubated 30 min. 4 μl of 10× control agonist Carbachol at the pre-determined EC80 concentration was added to wells containing antimuscarinic molecules. The plate was incubated 5 h and 8 μl of 1 μM Substrate+Solution D Loading Solution was added to each well and the plate was incubated 2 h at room temperature before reading on a fluorescence plate reader.

Chain of kappa opioid receptor (P41145 whole entry): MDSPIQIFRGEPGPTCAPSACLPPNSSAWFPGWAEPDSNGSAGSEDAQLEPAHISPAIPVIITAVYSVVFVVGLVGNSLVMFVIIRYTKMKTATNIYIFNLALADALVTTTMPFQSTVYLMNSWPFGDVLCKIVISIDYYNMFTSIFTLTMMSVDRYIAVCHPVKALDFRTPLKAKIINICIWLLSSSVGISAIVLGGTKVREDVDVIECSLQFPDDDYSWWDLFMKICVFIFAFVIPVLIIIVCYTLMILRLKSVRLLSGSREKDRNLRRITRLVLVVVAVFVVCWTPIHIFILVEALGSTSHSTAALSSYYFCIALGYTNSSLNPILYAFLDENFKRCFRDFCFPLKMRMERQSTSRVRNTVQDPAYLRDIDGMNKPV

COc1ccc(S(=O)(=O)N2CCC(N3CCC(C)CC3)CC2)cc1 [TASINI, TASIN-1, reference compound]
little affinity: effect in cell-based assay for the estrogen receptor (estrogen dependent growth of T47D cells) [1] | effect in cell-based assay for the kappa opioid receptor (kappa opioid receptor) | effect in cell-based assay for the M1 muscarinic receptor (M1 muscarinic receptor)
